This is an account of results in patent publication US20110039811A1, “TREATING HYPERGLYCEMIA WITH 25-HYDROXYVITAMIN D3” (priority 2008, published 2011).

The conditions of data set [1]: cited from earlier work.
In the next data set the test system is blood glucose. Nature of the data set: Clinical trial: fasting glucose levels, week 15 versus week 2. The class given is in vivo, human. Particulars: for effect on glucose levels (conclusion in words): daily or weekly oral dosing, week 15 vs week 2; for number of individuals with lower glucose levels at week 15 as compared to week 2: of ten individuals receiving daily (20 μg) or weekly (140 μg) oral dosing, postmenopausal women, no rigorous statistics. An excerpt: (§1) Each group included five subjects.
(§2) Equimolar quantities of both substances were investigated.
(§3) Each dosage was consumed orally at breakfast.
(§4) Rigorous statistical analysis of the results obtained could not be performed for two reasons. First, upon unblinding the data, it was discovered that there was a difference between the groups' baseline glucose levels, and that this difference continued throughout the study. Secondly, upon examining individual's insulin levels, it was noted that a number of them were recorded as “0.0” in at least one visit.

In the next data set the test system is insulin levels. Description: Clinical trial: insulin levels, week 15 versus week 2. Particulars: for number of individuals with higher insulin levels at week 15 than at week 2 / number of individuals with lower insulin level at week 15 than at week 2: only individuals without a "0.0" insulin result: four for Vitamin D3, five for 25-OH D3, daily or weekly dosing. Type of data set: in vivo, human.
Excerpt: as §1, §2, §3, §4

For data set [2], the system named is plasma glucose. Nature of the data set: Mouse study 1: plasma glucose in a model of muscle hypertrophy. Type of data set: in vivo, mice. The method, then:
In the first study, the effects of 25-OH D3 on blood glucose were determined in a model of muscle hypertrophy. Briefly, two groups of 10 animals were anesthetized and the left hindlimb of the animals was fixed. All animals received an analgesic. A small incision was made through the skin over the gastrocnemius muscle. The complete gastrocnemius muscle and his tendons were exposed. Both heads of the gastrocnemius muscle were carefully dissected from the underlying intact muscles and care was taken not to rupture nerves and vessels. The skin was closed with a silk suture and the animals were returned into the cages. After recovering from anesthesia the animals could move directly without problems in their cages. Animals were treated for three weeks by gavage with 25-OH D3 at a daily dosage of 50 μg/kg and the control group received vehicle. At the end of the study, blood was taken and plasma glucose concentration was analyzed by a Hitachi 912 Automatic Analyser.

The test system of data set [3] is plasma glucose. Nature of the data set: Mouse study 2: plasma glucose in a model of muscle atrophy (hindlimb unloading). The class given is in vivo, mice. Particulars: for change in blood glucose levels versus control with unloading (in words): study 2, Table 2; for Plasma glucose: study 2, hindlimb unloading, 50 μg/kg/bw (combination 50+50) daily by gavage for 3 weeks, control with unloading 12.89, without unloading 12.02. An excerpt: Briefly, nine month old animals were randomized at the beginning of the study into five groups with 10 animals per group. The animals were placed in special cages for duration of three weeks and their tails were suspended, which leads to skeletal muscle atrophy of the unloaded hindlimbs. An additional group without hindlimb unloading was placed in identical cages in order to detect the effects of unloading. All mice were housed separately and had free access to feed and water ad libidum. All animals were treated daily by gavage throughout the 3 weeks of the experiment: • 1. Control group without unloading received vehicle (gelatine) • 2. Control group with unloading received vehicle (gelatine) • 3. […] The 25-OH D3 group with unloading received 25-OH D3 (50 μg/kg/bw) • 5.

Consider 25-hydroxyvitamin D, for which the “blood concentration at which hypercalcemia may occur” value in data set [1] (in vivo) is “greater than 375 nmol/L”.
`C=C1CC[C@H](O)C/C1=C/C=C1\CCC[C@]2(C)[C@@H]([C@H](C)CCCC(C)(C)O)CC[C@@H]12` [25-OH D3, 25-hydroxyvitamin D3]: in the data set on blood glucose, the “effect on glucose levels (conclusion in words)” value was “can lower glucose levels” and the “number of individuals with lower glucose levels at week 15 as compared to week 2” value is given as 6 of 10. In the data set on insulin levels (compared with Vitamin D3), the “ability to improve insulin sensitivity (conclusion in words)” value is on record as “better ability to improve insulin sensitivy than does Vitamin D3”. In the data set on insulin levels, the “number of individuals with higher insulin levels at week 15 than at week 2” value was “one” and the “number of individuals with lower insulin level at week 15 than at week 2” value was “four”. Further, the “change in plasma glucose compared to control group (in words)” value in the data set on plasma glucose [2] (study 1, Table 1) is “decrease in plasma glucose”. This compound also gave a Plasma glucose in the data set on plasma glucose [2] (study 1, muscle hypertrophy model, 50 μg/kg daily by gavage for three weeks, vehicle control 15.53) of 14.65 mmol/L. For the same compound, in the data set with plasma glucose [3], the “change in blood glucose levels versus control with unloading (in words)” value is “moderate decrease in blood glucose levels” and the Plasma glucose is listed as 12.75 mmol/L.
With `C=C1CC[C@H](O)C/C1=C/C=C1\CCC[C@]2(C)[C@@H]([C@H](C)CCCC(C)C)CC[C@@H]12` [Vitamin D3, cholecalciferol], in the data set on blood glucose, the “effect on glucose levels (conclusion in words)” value is given as “can lower glucose levels” and the “number of individuals with lower glucose levels at week 15 as compared to week 2” value is recorded as 7. Besides, in the data set with insulin levels, the “number of individuals with higher insulin levels at week 15 than at week 2” value is “three” and the “number of individuals with lower insulin level at week 15 than at week 2” value is on record as “one”. In addition, in the data set on plasma glucose [3], the “change in blood glucose levels versus control with unloading (in words)” value is “moderate decrease in blood glucose levels” and the Plasma glucose was 12.69 mmol/L.
As to Vitamin D, the “blood concentration of 25-hydroxyvitamin D after ingestion as a dietary supplement” value in data set [1] (ingestion of 250 μg/day Vitamin D) is “about 200 nmol/L”.
